The values below come from patent EP0623621A1, “Oxazabicyclo derivatives and their use as 5-HT4 receptor agonists” (NISSHIN FLOUR MILLING CO., LTD., priority 1993, dated 1994).

Each structure is given as a SMILES string.

The assay concerns longitudinal muscle with adherent myenteric plexus preparation. In words: Gastrointestinal motility promoting action: increase of electrically induced twitch response of isolated guinea pig ileum. The conditions noted are these: compound at 10⁻⁵ M, transmural electrical stimulation (1 msec, 0.1 Hz). It is filed as cell-based, guinea pigs. As to the method:
The gastrointestinal motility promoting action of the present compounds was tested by the following method.
Ileum was excised from guinea pigs to prepare longitudinal muscle with adherent myenteric plexus preparation (approximately 2 cm length). The preparation suspended in organ bath containing Krebs-Henselite solution aerated with a mixed gas (5% CO₂, 95% O₂) were subjected to transmural electrical stimulation (1 msec, 0.1 Hz). Consistent twitch response induced by electrical stimulation and increase of twitch response induced by compound were recorded with an isometric transducer. The compounds were dissolved in distilled water or DMSO and tested at concentration of 10⁻⁵ M. The result is shown in terms of percent increase (%) in the contraction height by the electrical stimulation after administration of the compound relative to the contraction height before administration of the compound. Compound of Example 10 16.1% Compound of Example 29 22.4%

Turning to `CC(C)=CCn1nc(C(=O)NC2CC3COCC(C2)N3Cc2ccc(F)cc2)c2ccccc21` (stereo not drawn) [Example 10, N-[endo-9-(p-fluorobenzyl)-3-oxa-9-azabicyclo[3.3.1]non-7-yl]-1-(3-methyl-2-butenyl)indazole-3-carboxamide], the “percent increase (%) in the contraction height by the electrical stimulation after administration of the compound relative to the contraction height before administration of the compound” value was 16.1%.

Take `COc1cc(N)c(Cl)cc1C(=O)NC1CC2COCC(C1)N2Cc1ccc(F)cc1` (stereo not drawn) [Example 29, N-[endo-9-(p-fluorobenzyl)-3-oxa-9-azabicyclo[3.3.1]non-7-yl]-4-amino-5-chloro-2-methoxybenzamide]: the “percent increase (%) in the contraction height by the electrical stimulation after administration of the compound relative to the contraction height before administration of the compound” value was 22.4%.
